# Experimental data from paper PMC6155222, “3-Substituted N-Benzylpyrazine-2-carboxamide Derivatives: Synthesis, Antimycobacterial and Antibacterial Evaluation” (Molecules : A Journal of Synthetic Chemistry and Natural …, 2017).
# Tests used:
# [1] = system: M. avium ssp. avium Chester CNCTC My 80/72; assay: Microplate Alamar Blue Assay (MABA), microdilution panel method; type: cell-based; details: Mycobacterium avium
# [2] = system: M. kansasii Hauduroy CNCTC My 235/80; assay: as above; type: cell-based; details: Mycobacterium kansasii
# [3] = system: Mycobacterium smegmatis CCM 4622 (ATCC 607); assay: Antimycobacterial screening, microdilution broth panel method with resazurin; type: cell-based; details: Mycolicibacterium smegmatis, 48 h + 4 h
# Description: An antimycobacterial assay was performed with fast growing Mycobacterium smegmatis CCM 4622 (ATCC 607) from the Czech Collection of Microorganisms (Brno, Czech Republic). The technique used for activity determination was a microdilution broth panel method using 96-well microtitration plates. The culturing medium was Middlebrook 7H9 (MB) broth (Sigma-Aldrich), enriched with 0.4% of glycerol (Sigma-Aldrich) and 10% of Middlebrook OADC growth supplement (Himedia, Mumbai, India). Tested compounds were dissolved in DMSO (Sigma-Aldrich), and the MB broth was then added to obtain a concentration of 2000 μg·mL^−1. Standards used for activity determination were isoniazid (INH), rifampicin (RIF), and ciprofloxacin (CPX) (Sigma-Aldrich). Final concentrations were reached by binary dilution and the addition of mycobacterial suspension, and were set as 500, 250, 125, 62.5, 31.25, 15.625, 7.81, and 3.91 μg·mL^−1, except for the standards of ciprofloxacin and rifampicin, where the final concentrations were 12.5, 6.25, 3.125, 1.56, 0.78, 0.39, 0.195, and 0.098 μg·mL^−1. […] Plates were also sealed with polyester adhesive film and incubated in the dark at 37 °C, without agitation. The addition of 0.01% solution of resazurin sodium salt followed after 48 h. This stain was prepared by dissolving resazurin sodium salt (Sigma-Aldrich) in deionised water, producing a 0.02% solution. Then, a 10% aqueous solution of Tween 80 (Sigma-Aldrich) was prepared. Both liquids were mixed up making use of the same volumes and filtered through a syringe membrane filter. Microtitration panels were then incubated for a further 4 h. Antimycobacterial activity was expressed as the minimal inhibition concentration (MIC) and the value was read on the basis of stain colour change (blue colour—active compound; pink colour—not active compound). […] All experiments were conducted in duplicate.
# [4] = Determination of lipophilicity by RP-HPLC (log k); details: RP-HPLC capacity factor, MeOH 70% / H2O 30%, C18, 30 °C
# Description: Log k was determined using an Agilent Technologies 1200 SL liquid chromatograph with Diode-array Detector SL G1315C (Agilent Technologies Inc., Colorado Springs, CO, USA), with pre-column ZORBAX XDB-C18 5 μm, 4 mm × 4 mm, Part No. 7995118-504 (Agilent Technologies Inc.) and column ZORBAX Eclipse XDB-C18 5 μm, 4.6 mm × 250 mm, Part No. 7995118-585 (Agilent Technologies Inc.). The separation process was controlled by Agilent ChemStation, version B.04.02, extended by a spectral module (Agilent Technologies Inc.). The mobile phase consisted of MeOH (HPLC grade, 70%) and H2O (HPLC-Milli-Q Grade, 30%).
# The flow rate was 1.0 mL/min, samples were injected in a volume of 20 μL, and the column temperature was 30 °C. A value of 210 nm as the detection wavelength and 270 nm as the monitor wavelength were used. Retention times (tR) were measured in minutes. The dead time of the system (tD) was determined as the retention time of the KI methanol solution. Capacity factors k for individual compounds were calculated according to the formula k = (tR − tD)/tD. Log k, calculated from the capacity factor k, as used as the lipophilicity index converted to log scale.
# [5] = system: Mycobacterium tuberculosis H37Rv; assay: Microplate Alamar Blue Assay (MABA), microdilution panel method; type: cell-based
# [6] = system: Staphylococcus aureus CCM 4516/08; assay: Antibacterial microdilution broth method; type: cell-based; details: CCM4516, 24 h, read-out: MIC after 24 h S. aureus
# Description: (§1) Microdilution broth method. Antibacterial evaluation was performed against eight bacterial strains from the Czech Collection of Microorganisms (Brno, Czech Republic) (Staphylococcus aureus CCM 4516/08, Escherichia coli CCM 4517, Pseudomonas aeruginosa CCM 1961) or clinical isolates from the Department of Clinical Microbiology, University Hospital and Faculty of Medicine in Hradec Králové, Charles University in Prague, Czech Republic (Staphylococcus aureus H 5996/08-methicilin resistant (MRSA), Staphylococcus epidermidis H 6966/08, Enterococcus sp. J 14365/08, Klebsiella pneumoniae D 11750/08, Klebsiella pneumoniae J 14368/08-ESBL positive). All strains were subcultured on Mueller-Hinton agar (MHA) (Difco/Becton Dickinson, Detroit, MI, USA) at 35 °C and maintained on the same medium at 4 °C. The compounds were dissolved in DMSO, and the antibacterial activity was determined in Mueller-Hinton liquid broth (Difco/Becton Dickinson), and buffered to pH 7.0. Controls consisted of medium and DMSO alone. […] The minimum inhibitory concentration (MIC), defined as the minimum concentration to prevent the visible growth compared to control, was determined after 24 and 48 h of static incubation at 35 °C. The standards were neomycin, bacitracin, penicillin G, ciprofloxacin, and phenoxymethylpenicillin.
# [7] = system: Staphylococcus aureus H 5996/08-methicilin resistant (MRSA); assay: Antibacterial microdilution broth method; type: cell-based; details: Staphylococcus aureus, MRSA, 24 h; read-out: MIC after 24 h MRSA
# Description: as §1
# [8] = system: Staphylococcus epidermidis H 6966/08; assay: Antibacterial microdilution broth method; type: cell-based; details: Staphylococcus epidermidis, H6966/08, 24 h; read-out: MIC after 24 h S. epidermidis
# Description: as §1
# [9] = Cytotoxicity assay, CellTiter 96 Aqueous One Solution; type: cell-based; details: human, HepG2 cells; for IC50 at 24 h: 24 h exposure
# Description: The human liver hepatocellular carcinoma cell line HepG2 (passage 35–36), purchased from Health Protection Agency Culture Collections (ECACC, Salisbury, UK), was routinely cultured in Minimum Essential Eagle Medium MEM (Sigma-Aldrich) supplemented with 10% fetal bovine serum (PAA Laboratories GmbH, Pasching, Austria), 2mM L-glutamine solution (Sigma-Aldrich), and 1% non-essential amino acid solution (Sigma-Aldrich), in a humidified atmosphere containing 5% CO2 at 37 °C.
# For subculturing, the cells were harvested after trypsin/EDTA (Sigma-Aldrich) treatment at 37 °C. To evaluate the cytotoxicity, the HepG2 cells treated with the tested substances were used as experimental groups, whereas untreated HepG2 cells served as control groups.
# The HepG2 cells were seeded in a density of 1 × 10^4 cells per well on a 96-well plate. The following day (24 h after seeding), they were treated with tested substances dissolved in DMSO (maximal incubation concentration of DMSO was 1%). […] The treatment was carried out in a humidified atmosphere containing 5% CO2 at 37 °C, in triplicate, for 24 h. The controls representing 100% cell viability, 0% cell viability (the cells treated with 10% DMSO), no-cell controls, and vehiculum controls were incubated in triplicate, simultaneously. After 24 h exposure, the reagent from the kit CellTiter 96® Aqueous One Solution Cell Proliferation Assay (Promega) was added, according to the recommendation of the manufacturer. After 2 h incubation at 37 °C in humidified, 5% CO2 atmosphere, the absorbance was recorded at 490 nm. Inhibitory curves were constructed for each compound, plotting incubation concentrations vs. percentage of absorbance relative to untreated control. The standard toxicological parameter IC50 was calculated by a nonlinear regression analysis of the inhibitory curves using GraphPad Prism software (version 6, GraphPad Software, Inc., La Jolla, CA, USA).
compound,measurement,setting,value
"O=C(NCc1ccc(Cl)cc1)c1nccnc1NCc1ccc(Cl)cc1 [Compound 7a, N-(4-Chlorobenzyl)-3-((4-chlorobenzyl)amino)pyrazine-2-carboxamide]",MIC,[1],> 50 µg/mL
same,MIC,[2],> 50 µg/mL
same,MIC,[3],> 250 µg/mL
same,Log k,[4],1.533
same,MIC,[5]; pH 6.6,> 50 µg/mL
"O=C(NCc1ccccc1Cl)c1nccnc1Cl [Compound 5, 3-Chloro-N-(2-chlorobenzyl)pyrazine-2-carboxamide]",MIC,[6],7.81 µM
same,MIC,[7],500 µM
same,MIC,[8],15.6 µM
same,selectivity ratio at 24 h,"[9]; HepG2 IC50 / MIC S. aureus, read-out: selectivity index, SI = IC50/MIC",108
same,IC50 at 24 h,[9],847 µM
same,MIC,[3],250 µg/mL
same,Log k,[4],0.033
same,MIC,[5]; pH 6.6,> 100 µg/mL
"Cc1ccccc1CNC(=O)c1nccnc1NCc1ccccc1C [Compound 1a, N-(2-Methylbenzyl)-3-((2-methylbenzyl)amino)pyrazine-2-carboxamide]",IC50 at 24 h,[9],> 250 µM
same,MIC,[3],> 500 µg/mL
same,Log k,[4],1.459
same,MIC,[5]; pH 6.6,12.5 µg/mL
same,MIC,[5]; value in parentheses,36 µM
"COc1ccc(CNC(=O)c2nccnc2NCc2ccc(OC)cc2)cc1 [Compound 3a, N-(4-Methoxybenzyl)-3-((4-methoxybenzyl)amino)pyrazine-2-carboxamide]",MIC,[6],15.6 µM
same,MIC,[7],62.5 µM
same,MIC,[8],> 500 µM
same,IC50 at 24 h,[9],> 100 µM
same,MIC,[3],> 500 µg/mL
same,Log k,[4],0.981
same,MIC,[5]; pH 6.6,50 µg/mL
same,MIC,[5]; value in parentheses,132 µM
"NNC(=O)c1ccncc1 [INH, isoniazid, reference compound]",MIC,[1],6.25 to 12.5 µg/mL
same,MIC,[2],3.13 to 12.5 µg/mL
same,MIC,[3],7.81 to 15.6 µg/mL
same,MIC,[5]; pH 6.6,0.2 µg/mL
